In PubChem BioAssay AID330 (DTP/NCI, 2004):
Toxic doses and inconclusive results are not listed. Rule for the calls: active = survival T/C of 150% or more; inactive = T/C below 125% in these data.

System: P388 leukemia ip, CD2F1 mice, survival T/C
Experiment: NCI In Vivo Anticancer Drug Screen. Data for tumor model P388 Leukemia (intraperitoneal) in CD2F1 (CDF1) mice
Conditions: endpoint: median survival time, higher = longer survival
In short: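 Mice carrying the transplanted tumor received test compound or vehicle. Survival was recorded in each group, and the value is the treated-group measurement divided by that of the vehicle-treated control group.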

[1] = dose: 50.0 mg/kg/injection, schedule: Q01DX005 (ip), vehicle: Klucel (hydroxypropylcellulose) (HPC)
[2] = dose: 100.0 mg/kg/injection, schedule: Q01DX005 (ip), vehicle: Klucel (hydroxypropylcellulose) (HPC)
[3] = dose: 200.0 mg/kg/injection, schedule: Q01DX005 (ip), vehicle: Klucel (hydroxypropylcellulose) (HPC)
[4] = dose: 50.0 mg/kg/injection, schedule: Q01DX009 (ip), vehicle: saline with Tween-80
[5] = dose: 100.0 mg/kg/injection, schedule: Q01DX009 (ip), vehicle: saline with Tween-80
[6] = dose: 200.0 mg/kg/injection, schedule: Q01DX009 (ip), vehicle: saline with Tween-80
[7] = dose: 60.0 mg/kg/injection, schedule: Q01DX005 (ip), vehicle: saline with Tween-80
[8] = dose: 120.0 mg/kg/injection, schedule: Q01DX005 (ip), vehicle: saline with Tween-80
[9] = dose: 240.0 mg/kg/injection, schedule: Q01DX005 (ip), vehicle: saline with Tween-80
[10] = dose: 25.0 mg/kg/injection, schedule: Q01DX009 (ip), vehicle: saline with Tween-80
[11] = dose: 100.0 mg/kg/injection, schedule: Q04DX003 (ip), vehicle: saline with Tween-80

Measured: T/C

O=P1(N2CCOCC2)OC(c2ccccc2)=CCN1c1ccc(Cl)cc1 (configuration not stated)
inactive: [1] 104 % of control | [2] 100 % of control | [3] 95 % of control

O=C(Nc1ccc(F)cc1)N1c2ccccc2SC12CCCC2
inactive: [4] 91 % of control | [5] 93 % of control | [6] 93 % of control

COC1=CC(=O)/C(=C(O)/C=C/c2ccccc2)C(=O)C1(C)C
inactive: [7] 108 % of control | [8] 115 % of control | [9] 123 % of control

CC(=O)OC1C=CCC2C(=O)C34CC=CC(OC(C)=O)C3(C(=O)c3ccccc3C4=O)C(=O)C12 (configuration not stated)
inactive: dose: 6.25 mg/kg/injection, schedule: Q01DX009 (ip), vehicle: saline with Tween-80 103 % of control | dose: 12.5 mg/kg/injection, schedule: Q01DX009 (ip), vehicle: saline with Tween-80 101 % of control | [10] 120 % of control | [4] 116 % of control | [5] 116 % of control

CC(=O)OCc1c(-c2ccccc2)nc2sccn12
inactive: dose: 100.0 mg/kg/injection, schedule: Q01DX001 (ip), vehicle: Klucel (hydroxypropylcellulose) (HPC) 98 % of control | dose: 200.0 mg/kg/injection, schedule: Q01DX001 (ip), vehicle: Klucel (hydroxypropylcellulose) (HPC) 100 % of control

COc1c(Cc2ccccc2O)c(O)cc(O)c1C(=O)CCc1ccccc1
inactive: dose: 0.25 mg/kg/injection, schedule: Q01DX009 (ip), vehicle: Klucel (hydroxypropylcellulose) (HPC) 100 % of control | dose: 0.5 mg/kg/injection, schedule: Q01DX009 (ip), vehicle: Klucel (hydroxypropylcellulose) (HPC) 101 % of control | dose: 1.0 mg/kg/injection, schedule: Q01DX009 (ip), vehicle: Klucel (hydroxypropylcellulose) (HPC) 107 % of control | dose: 2.0 mg/kg/injection, schedule: Q01DX009 (ip), vehicle: Klucel (hydroxypropylcellulose) (HPC) 113 % of control | dose: 4.0 mg/kg/injection, schedule: Q01DX009 (ip), vehicle: Klucel (hydroxypropylcellulose) (HPC) 104 % of control | dose: 8.0 mg/kg/injection, schedule: Q01DX009 (ip), vehicle: Klucel (hydroxypropylcellulose) (HPC) 100 % of control | dose: 16.0 mg/kg/injection, schedule: Q01DX009 (ip), vehicle: Klucel (hydroxypropylcellulose) (HPC) 96 % of control | dose: 32.0 mg/kg/injection, schedule: Q01DX009 (ip), vehicle: Klucel (hydroxypropylcellulose) (HPC) 100 % of control

COc1ccc(S(=O)(=O)F)cc1NC(=O)Oc1ccccc1
inactive: [7] 105 % of control | [8] 113 % of control | [9] 111 % of control

Nc1nc(N)c2nc(NCc3ccc(C(=O)NC(CCC(=O)O)C(=O)O)cc3)cnc2n1 (configuration not stated)
inactive: dose: 50.0 mg/kg/injection, schedule: Q01DX009 (ip), vehicle: saline 100 % of control | dose: 100.0 mg/kg/injection, schedule: Q01DX009 (ip), vehicle: saline 109 % of control | dose: 200.0 mg/kg/injection, schedule: Q01DX009 (ip), vehicle: saline 113 % of control | dose: 400.0 mg/kg/injection, schedule: Q01DX009 (ip), vehicle: saline 95 % of control

CCOC(=O)OCC(=O)[C@@]1(O)CC[C@H]2[C@@H]3CCC4=CC(=O)CC[C@]4(C)[C@H]3[C@@H](O)C[C@@]21C
inactive: [4] 104 % of control | dose: 50.0 mg/kg/injection, schedule: Q04DX003 (ip), vehicle: saline with Tween-80 100 % of control | [5] 100 % of control | [11] 100 % of control | [6] 90 % of control | dose: 200.0 mg/kg/injection, schedule: Q04DX003 (ip), vehicle: saline with Tween-80 100 % of control

ClCCN(CCCCCCN(CCCl)c1ccccc1)c1ccccc1
inactive: dose: 50.0 mg/kg/injection, schedule: Q01DX009 (ip), vehicle: Klucel (hydroxypropylcellulose) (HPC) 109 % of control | dose: 100.0 mg/kg/injection, schedule: Q01DX009 (ip), vehicle: Klucel (hydroxypropylcellulose) (HPC) 109 % of control | dose: 200.0 mg/kg/injection, schedule: Q01DX009 (ip), vehicle: Klucel (hydroxypropylcellulose) (HPC) 108 % of control

NCCCCC(C(=O)NC(Cc1ccc(O)cc1)C(=O)NN)N(C(=O)OCc1ccccc1)C(=O)OCc1ccccc1 (configuration not stated)
inactive: dose: 50.0 mg/kg/injection, schedule: Q01DX005 (ip), vehicle: saline + Tween-80 + alcohol 107 % of control | dose: 100.0 mg/kg/injection, schedule: Q01DX005 (ip), vehicle: saline + Tween-80 + alcohol 104 % of control | dose: 200.0 mg/kg/injection, schedule: Q01DX005 (ip), vehicle: saline + Tween-80 + alcohol 94 % of control

CCCC(=O)O[C@H]1/C(=C/C(=O)OC)C[C@H]2C[C@H]([C@@H](C)O)OC(=O)C[C@H](O)C[C@@H]3C[C@H](OC(=O)CC(C)C)C(C)(C)[C@](O)(C[C@@H]4C/C(=C\C(=O)OC)C[C@H](/C=C/C(C)(C)[C@]1(O)O2)O4)O3
inactive: dose: 0.01 mg/kg/injection, schedule: Q01DX009 (ip), vehicle: saline + alcohol 111 % of control | dose: 0.05 mg/kg/injection, schedule: Q01DX009 (ip), vehicle: saline + alcohol 113 % of control

CC(C)=COS(=O)(=O)C(F)(F)F
inactive: dose: 50.0 mg/kg/injection, schedule: Q01DX009 (ip), vehicle: olive oil, sesame oil, peanut oil 99 % of control | dose: 100.0 mg/kg/injection, schedule: Q01DX009 (ip), vehicle: olive oil, sesame oil, peanut oil 96 % of control | dose: 200.0 mg/kg/injection, schedule: Q01DX009 (ip), vehicle: olive oil, sesame oil, peanut oil 90 % of control

CCOC(=O)C(C(=O)OCC)=S1c2ccccc2Sc2ccccc21
inactive: dose: 60.0 mg/kg/injection, schedule: Q01DX005 (ip), vehicle: Klucel (hydroxypropylcellulose) (HPC) 90 % of control | dose: 120.0 mg/kg/injection, schedule: Q01DX005 (ip), vehicle: Klucel (hydroxypropylcellulose) (HPC) 89 % of control

CC12C=C3CC(OC(=O)c4ccccc4)CCC3(O1)c1ccccc12 (configuration not stated)
inactive: [10] 99 % of control | [4] 105 % of control | [5] 95 % of control

CC(=O)Nc1ccc(C(=O)C(C)=O)cc1
inactive: [4] 100 % of control | [5] 104 % of control | [6] 97 % of control

c1ccc(N/N=C2/CCN3CCCc4cccc2c43)cc1
inactive: dose: 12.5 mg/kg/injection, schedule: Q04DX003 (ip), vehicle: DMSO 100 % of control | dose: 25.0 mg/kg/injection, schedule: Q04DX003 (ip), vehicle: DMSO 101 % of control | dose: 50.0 mg/kg/injection, schedule: Q04DX003 (ip), vehicle: DMSO 110 % of control

CCCN1CCc2cc3c(cc2C1)OCO3
inactive: dose: 60.0 mg/kg/injection, schedule: Q01DX005 (ip), vehicle: saline 93 % of control | dose: 120.0 mg/kg/injection, schedule: Q01DX005 (ip), vehicle: saline 91 % of control

O=[n+]1ccn([O-])c2ccccc21.[Mn].[O-][Cl+3]([O-])([O-])O
inactive: [11] 118 % of control

c1ccc(/C(=N\Nc2nc3ccccc3s2)c2ccccn2)cc1
inactive: dose: 50.0 mg/kg/injection, schedule: Q01DX005 (ip), vehicle: saline with Tween-80 104 % of control | dose: 100.0 mg/kg/injection, schedule: Q01DX005 (ip), vehicle: saline with Tween-80 109 % of control | dose: 200.0 mg/kg/injection, schedule: Q01DX005 (ip), vehicle: saline with Tween-80 95 % of control

CC(=O)CC(=O)Nc1ccc(Oc2ccccc2)cc1
inactive: dose: 100.0 mg/kg/injection, schedule: Q04DX002 (ip), vehicle: Klucel (hydroxypropylcellulose) (HPC) 100 % of control | dose: 200.0 mg/kg/injection, schedule: Q04DX002 (ip), vehicle: Klucel (hydroxypropylcellulose) (HPC) 97 % of control | dose: 400.0 mg/kg/injection, schedule: Q04DX002 (ip), vehicle: Klucel (hydroxypropylcellulose) (HPC) 96 % of control

CC1=CCC2(C)CCC(C(C)C)C2(O)CC1 (configuration not stated)
inactive: dose: 50.0 mg/kg/injection, schedule: Q04DX003 (ip), vehicle: saline 104 % of control | dose: 100.0 mg/kg/injection, schedule: Q04DX003 (ip), vehicle: saline 90 % of control | dose: 200.0 mg/kg/injection, schedule: Q04DX003 (ip), vehicle: saline 100 % of control

O/N=C(\CNC/C(=N\O)NO)NO
inactive: [1] 90 % of control | [2] 97 % of control | [3] 93 % of control

CC1OC2CC(=O)OC2C2=C1C(=O)c1cc(-c3cc(O)c4c(c3)C(=O)C3=C(C4=O)C4OC(=O)CC4OC3C)cc(O)c1C2=O (configuration not stated)
inactive: dose: 0.95 mg/kg/injection, schedule: Q01DX005 (ip), vehicle: DMSO 98 % of control | dose: 1.9 mg/kg/injection, schedule: Q01DX005 (ip), vehicle: DMSO 107 % of control | dose: 3.8 mg/kg/injection, schedule: Q01DX005 (ip), vehicle: DMSO 99 % of control
